Laboratory results from patent US12570687B2, “Triterpenoid compounds, pharmaceutical compositions thereof, and their use for treating a nuclear receptor subfamily 4 group a member 1-mediated disease” (NUCMITO PHARMACEUTICALS COMPANY LIMITED, priority 2019, dated 2026).
pKd: −log10 of the molar value.

Legend:
[1] = tested on: A375 (malignant melanoma); assay: MTT antiproliferative assay, A375; assay type: cell-based; settings: Homo sapiens, A-375, A375, 10 μM, 48 or 72 h, read-out: inhibition of cell growth, A375
How it was run: (§1)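 2,000-5,000 cells/well; cpd 0.137–100 μM or 10 μM single dose; 37° C, 48 or 72 h; MTT 4 h; DMSO dissolve; A490; % viability vs DMSO vehicle. Activity banded by % growth inhibition at 10 μM.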

[2] = tested on: A549 (lung adenocarcinoma); assay: MTT antiproliferative assay, A549; assay type: cell-based; settings: Homo sapiens, A549, 10 μM, 48 or 72 h, read-out: inhibition of cell growth, A549
How it was run: as §1

[3] = molecular target: Nur77-LBD (Homo sapiens, UniProt P22736); assay: Surface plasmon resonance (SPR) binding to Nur77-LBD; settings: BIAcore T200, 25° C., 1:1 Langmuir binding mode, read-out: Kd when binding to the Nur77-LBD protein
Chain of Nur77-LBD (P22736 360-595 limits assumed, species assumed): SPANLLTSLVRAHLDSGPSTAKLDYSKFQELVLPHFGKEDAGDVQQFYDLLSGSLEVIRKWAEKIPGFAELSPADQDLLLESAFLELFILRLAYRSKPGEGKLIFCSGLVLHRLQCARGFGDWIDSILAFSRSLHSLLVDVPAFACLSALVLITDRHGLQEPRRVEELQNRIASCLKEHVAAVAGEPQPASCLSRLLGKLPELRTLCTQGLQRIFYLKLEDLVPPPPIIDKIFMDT
Protocol: A test compound was analyzed for its binding kinetics with Nur77-LBD at 25° C. on a BIAcore T200 machine with CM5 chips. PBSP was used for all measurements. For SPR measurements, Nur77-LBD proteins were purified. A blank channel was used as negative control. About 10,000 response units of Nur77-LBD were immobilized on the chips. When the data collection was finished in each cycle, the sensor surface was regenerated with glycine-HCl at pH 2.5. A serial of concentrations ranging from 0.15 to 5.0 μM of the test compound was used. Sensograms were fit globally with BIAcore T200 analysis using 1:1 Langmuir binding mode.

[4] = tested on: HepG2 (liver cancer); assay: MTT antiproliferative assay, HepG2; assay type: cell-based; settings: Homo sapiens, HepG2, 10 μM, 48 or 72 h, read-out: inhibition of cell growth, HepG2
How it was run: as §1

[5] = tested on: SW620 (colon cancer); assay: MTT antiproliferative assay, SW620; assay type: cell-based; settings: Homo sapiens, SW-620, SW620, 10 μM, 48 or 72 h, read-out: inhibition of cell growth, SW620
How it was run: as §1

[6] = tested on: MDA-MB-231 (breast cancer); assay: MTT antiproliferative assay, MDA-MB-231; assay type: cell-based; settings: Homo sapiens, MDA-MB-231, 10 μM, 48 or 72 h, read-out: inhibition of cell growth, MDA-MB-231
How it was run: as §1

[7] = tested on: HeLa (ovarian cancer); assay: MTT antiproliferative assay, HeLa; assay type: cell-based; settings: Homo sapiens, 48 or 72 h, read-out: inhibition of cell growth, HELA
How it was run: as §1

[8] = tested on: A431 (epidermoid carcinoma); assay: MTT antiproliferative assay, A431; assay type: cell-based; settings: Homo sapiens, A-431, A431, 10 μM, 48 or 72 h, read-out: inhibition of cell growth, A431
How it was run: as §1

| SMILES | inhibition at 10 µM [1] [%] | inhibition at 10 µM [2] [%] | pKd [3] | inhibition at 10 µM [4] [%] | inhibition at 10 µM [5] [%] | inhibition at 10 µM [6] [%] | inhibition at 10 µM [7] [%] | inhibition at 10 µM [8] [%] |
| --- | --- | --- | --- | --- | --- | --- | --- | --- |
| CO[C@]1(C)C(=O)C(=O)C=C2C1=CC=C1[C@@]2(C)CC[C@@]2(C)[C@@H]3C[C@](C)(C(=O)O)CC[C@]3(C)CC[C@]12C [Compound A1, (2R,4aS,6aS,9S,12bR,14aS,14bR)-9-methoxy-2,4a,6a,9,12b,14a-hexamethyl-10,11-dioxo-1,2,3,4,4a,5,6,6a,9,10,11,12b,13,14,14a,14b-hexadecahydropicene-2-carboxylic acid] | 30 to 50 | 30 to 50 | 6.41 | 50 to 80 | 50 to 80 | 50 to 80 | ≥ 80 | 50 to 80 |
| CO[C@]1(C)C(=O)C(=O)C=C2C1=CC=C1[C@@]2(C)CC[C@@]2(C)[C@@H]3C[C@](C)(C(N)=O)CC[C@]3(C)CC[C@]12C [Compound A9, (2R,4aS,6aS,9S,12bR,14aS,14bR)-9-methoxy-2,4a,6a,9,12b,14a-hexamethyl-10,11-dioxo-1,2,3,4,4a,5,6,6a,9,10,11,12b,13,14,14a,14b-hexadecahydropicene-2-carboxamide] | 30 to 50 | 30 to 50 | 6.05 | 50 to 80 | 50 to 80 | ≥ 80 | ≥ 80 | 50 to 80 |
| CNC(=O)[C@]1(C)CC[C@]2(C)CC[C@]3(C)C4=CC=C5C(=CC(=O)C(=O)[C@@]5(C)OC)[C@]4(C)CC[C@@]3(C)[C@@H]2C1 [Compound A7, (2R,4aS,6aS,9S,12bR,14aS,14bR)-9-methoxy-N,2,4a,6a,9,12b,14a-heptamethyl-10,11-dioxo-1,2,3,4,4a,5,6,6a,9,10,11,12b,13,14,14a,14b-hexadecahydropicene-2-carboxamide] | 50 to 80 | 30 to 50 | 6.25 | 50 to 80 | 30 to 50 | ≥ 80 | ≥ 80 | 50 to 80 |
